Tested on: 1-3 days old chicken memory
Assay: one-trial passive avoidance learning task in chicks (weak training, test 24 hours after training)
Assay type: in vivo
Conditions: for dosage at which the maximum effect was observed: weak training, chicks
Procedure: The method of one-trial passive avoidance learning task has been used in order to investigate the compounds action on 1-3 days old chicken memory. This is the basic method using for investigation the mechanisms of memory formation. Cross chickens (males) “Ptichnoe” were used in experiments. The animals were delivered at the day of hatching and were kept in pairs in the cages which measured 20×25×20 cm, with constant access to water and feed, at a temperature 28° C. and a light cycle of 12:12 hours. The minimal adaptation time was two hours.
The compounds were dissolved in sterile saline. Intraperitoneal injections of 0.1 ml were used for systemic administration. Bilateral intracranial injections were administrated to the lateral ventricles with […] microsyringe («Hamilton») using plastic headholder. The volume of injections was […] for hemisphere. To control the localizations of injections the monitoring of the surface of skull and brain were carried out after the experiment and decapitation. Control groups received saline of the same volume.
The experiments were conducted according the following scheme: 20 minutes before training the animals were pretrained by being offered two neutral (wet with water) […] fixed to a rod. For further training chicks that pecked each bead within first 10 sec were used. Chicks were offered an aversive bead wet with pungent solution (10% solution of methylanthranilate in ethanol). […] Testing was conducted 24 hours after training by offering within 10 seconds a similar but dry aversive bead, and then—a neutral bead. The avoidance of aversive bead was estimated as a long-term memory.

[1] = administrated either immediately before training, or 4 hours after completion of the training

SMILES | effect on memory [1] | dosage at which the maximum effect was observed (10 min training (route not given)) | dosage at which the maximum effect was observed, per animal (equivalent of 0.1 mg/kg, 10 min training) | dosage at which the maximum effect was observed (intracranial injection 10-30 min before training) | effect on memory (oral administration 30 min before weak treatment, dosage 0.1 to 1.0 mg/kg)
COC(=O)c1ccc(C(NCCc2ccncc2)C(=O)NCCc2ccncc2)cc1 (stereo not drawn) [ACB-0002, Methyl 4-{2-oxo-1,2-bis[(2-pyridine-4-ylethyl)amino]ethyl}benzoate] | may enhance memory |  |  |  | 
O=C(NCCc1ccncc1)C(NCCc1ccncc1)c1ccc2c(c1)OCO2 (stereo not drawn) [ACB-0005, 2-(1,3-benzodioxole-5-yl)-N-(2-pyridine-4-ylethyl)-2-[(2-pyridine-4-ylethyl)-amino]acetamid] | may enhance memory | 0.1 mg/kg | 4 µg per animal | 5 mg | stimulating effect on memory

From patent US20220135547A1, “HETEROCYCLIC LOW-MOLECULAR SAPP MIMETICS, A PHARMACEUTICAL COMPOSITION AND METHODS FOR PRODUCING AND USING SAME” (priority 2010, published 2022)
